Measurements from patent EP1248603B1, “USE OF PARTICULAR COMPOUNDS FOR PROPHYLAXIS AND TREATMENT OF HEPATITIS C” (Morphochem AG, priority 2000, dated 2001).
Like-named read-outs stand apart in the source and are kept apart here.

Molecular target: T1, NS3 Proteinase (Hepatitis C virus genotype 1b, UniProt P26663)
T1 construct: beschriebenen NS3 Proteinase-Assay bestimmt
Experiment: NS3 proteinase assay (analogous to Taliani et al., Analytical Biochemistry 240 (1996) 60-67; evaluation with GraFit 4)
Type: biochemical
Text: Die IC50-Werte wurden analog zu dem in: M. Taliani et al., Analytical Biochemistry, 240 (1996) 60-67 beschriebenen NS3 Proteinase-Assay bestimmt. Die Auswertung erfolgte mit Hilfe des Programms "GraFit 4" der Firma Erithacus Software Ltd. (Staines, Middlesex, UK).

T1 sequence (P26663 1027-1657, other chains not shown): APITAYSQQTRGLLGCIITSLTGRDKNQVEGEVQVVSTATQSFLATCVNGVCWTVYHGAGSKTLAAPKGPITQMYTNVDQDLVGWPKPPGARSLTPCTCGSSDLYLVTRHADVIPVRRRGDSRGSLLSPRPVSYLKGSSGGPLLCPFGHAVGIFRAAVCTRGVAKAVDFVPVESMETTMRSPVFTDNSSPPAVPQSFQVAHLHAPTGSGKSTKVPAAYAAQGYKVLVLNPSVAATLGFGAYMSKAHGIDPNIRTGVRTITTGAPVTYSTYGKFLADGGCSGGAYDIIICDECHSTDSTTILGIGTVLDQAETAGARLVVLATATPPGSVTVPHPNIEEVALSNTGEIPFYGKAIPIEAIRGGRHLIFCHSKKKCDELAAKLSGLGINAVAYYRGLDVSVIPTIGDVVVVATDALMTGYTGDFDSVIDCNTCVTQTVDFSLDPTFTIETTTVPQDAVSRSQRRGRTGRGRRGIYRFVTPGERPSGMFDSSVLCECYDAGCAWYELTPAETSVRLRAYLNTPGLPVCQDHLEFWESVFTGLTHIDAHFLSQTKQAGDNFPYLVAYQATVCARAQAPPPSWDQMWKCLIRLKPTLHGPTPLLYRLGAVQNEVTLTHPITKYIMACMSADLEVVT

SMILES | IC50 (read-out: IC50) [µM] | IC50 [µM]
CC1=CC(=O)c2ccccc2C1=O [Beispiel 1, Menadion] | 45 | 
O=C1C=CC(=O)c2ccccc21 [Beispiel 2, 1,4-Naphthochinon] |  | 20
Nc1ccc(O)c2ccccc12 [Beispiel 3, 1-Amino-4-naphthol] | 13 | 

Continued, in another order:

IC50 (read-out: IC50) [µM] | SMILES | IC50 [µM]
25 | Oc1ccc(NCc2ccccc2)c2ccccc12 [Beispiel 4, 1-Benzylamino-4-naphthol] | 
51 | Nc1ccc(O)c2ncccc12 [Beispiel 5, 5-Amino-8-hydroxychinolin] | 
